Measurements as given in US20080261898A1, “COMPOSITION AND METHOD FOR CANCER TREATMENT AND PREVENTION” (priority 2007, published 2008).

Legend:
[1] = system: primary human prostate endothelial cells; assay: Viable cells, Annexin-V staining and flow cytometry, primary human prostate endothelial cells; format: cell-based; conditions: up to the highest concentration, 1000 μM, 72 hr
Method: (§1) AC620 was incubated with DU-145 cells, LNCaP cells and primary human prostate endothelial cells at high concentrations (0, 5, 100, 500, 1000 μM) for 72 hr. The number of viable cells was measured by Annexin-V staining followed by flow cytometry analysis.

DU-145 cells [2] = assay: Cell cycle profile by flow cytometry, DU-145 cells; format: cell-based, human; conditions: 72 hr
Method: AC620 was incubated with DU-145 cells at various concentrations ([…]) for 72 hr. The cells were then collected and their cell cycle profiles were measured by flow cytometry analysis.

LNCaP cells [3] = assay: Apoptosis, Annexin V flow cytometry, LNCaP cells; format: cell-based, human; conditions: 72 hr
Method: (§2) AC620 was incubated with DU-145 cells and LNCaP cells at various concentrations (0, 0.1, 0.5, 1, 5 μM) for 72 hr. The effect of AC620 on apoptosis of DU-145 cells and LNCaP cells was assessed. The cells were washed in 1×PBS and resuspended in binding buffer (0.01M Hepes pH 7.4, 0.14M NaCl, 2.5 mM CaCl2), stained with Annexin V conjugated with APC (Pharmingen) and then subjected to flow cytometry analysis using FACS Caliber (BD Biosciences, San Jose, Calif.).

VEGF = VEGF expression in xenograft tumor samples, immunohistochemistry; format: in vivo, mouse; conditions: 1 mg/kg s.c. twice a week, 30 days
Method: (§3) 8-12 week old athymic nude mice (Jackson Laboratories, Bar Harbor, Me., US) were randomly assigned to Control (n=10) and Treatment (n=10) groups. Tumor xenografts were generated by injecting DU-145 cells (4×10^6) subcutaneously into the mice (Day 1). 1 mg/kg body weight of AC620 or PBS (Control) was administrated to the mice by subcutaneous injection starting at the time of tumor implantation (Day 1) and the mice were treated twice a week. Tumors were measured periodically. At Day 30, the mice were sacrificed. Half of each tumor was processed for immunohistochemical analysis and the other half was frozen for subsequent protein and RNA analysis.
(§4) Xenograft mouse model was generated and AC620 or PBS (Control) was administrated to the transplanted mice for 30 days as described above. After the mice were sacrificed, immunohistochemical analysis of the tumor samples was performed using VEGF and VEGF R2 antibodies with a semi-automatic system Ventana ES (Ventana Inc, Tucson, Ariz.). The specimens were viewed with an Olympus BX51 microscope. Expression of VEGF in tumor samples at RNA level was measured by RT-PCR.

p21 = p21 expression in xenograft tumor samples, immunoblotting; format: in vivo, mouse
Method: as §3
Xenograft mouse model was generated and AC620 or PBS (Control) was administrated to the transplanted mice for 30 days as described above. After the mice were sacrificed, immunoblotting analysis of the tumor samples was performed using Bcl-2 and p21 antibodies as described above.

HT-29 cells = assay: BrdU based cell proliferation assay, HT-29 cells; conditions: 72 hr
Method: AC620 was incubated with hormone-refractory prostate cancer cell line DU-145 cells and hormone-responsive prostate cancer cell line LNCaP cells at various concentrations (0, 0.1, 0.5, 1, 5 μM) for 72 hr. LNCaP cells were maintained in RPMI 1640 medium (PAA Laboratories, Pashing, Austria) supplemented with 10% fetal calf serum (FCS) (Sigma, St. Louis, Mo.). The effect of AC620 on proliferation of DU-145 cells and LNCaP cells was determined by using a non-radioactive BrdU based cell proliferation assay kit (Roche, Switzerland) according to manufacturer's protocol. BrdU incorporation into the cellular DNA was determined by measuring the absorbance at 450 nm and 690 nm on an ELISA plate reader.
AC620 was incubated with metastatic colorectal cancer cell line HT-29 cells at various concentrations (0, 0.1, 0.5, 1, 4 μM) for 72 hr. The effect of AC620 on proliferation of HT-29 cells was determined by using a non-radioactive, BrdU based cell proliferation assay as described above.

CDK1 = CDK1 expression in xenograft tumor samples, immunoblotting; format: in vivo, mouse
Method: as §3
(§5) Xenograft mouse model was generated and AC620 or PBS (Control) was administrated to the transplanted mice for 30 days as described above. After the mice were sacrificed, immunoblotting analysis of the tumor samples was performed using CDK1 and CDK2 antibodies as described above.

DU-145 cells [4] = assay: Viable cells, Annexin-V staining and flow cytometry, DU-145 cells; format: cell-based, human; conditions: 72 hr
Method: as §1

LNCaP cells [5] = assay: Viable cells, Annexin-V staining and flow cytometry, LNCaP cells; format: cell-based, human; conditions: 72 hr
Method: as §1

CDK2 = CDK2 expression in xenograft tumor samples, immunoblotting; format: in vivo, mouse
Method: as §3, §5

DU-145 cells [6] = assay: Apoptosis, Annexin V flow cytometry, DU-145 cells; format: cell-based, human; conditions: 72 hr
Method: as §2

VEGF RNA = VEGF RNA expression in xenograft tumor samples, RT-PCR; format: in vivo, mouse; conditions: 30 days treatment
Method: as §3, §4

[7] = system: VEGF Receptor I (VEGF R1); assay: VEGF R1 expression in DU-145 cells, immunoblotting; format: cell-based, human; conditions: 0.1, 0.5, 1 μM, 72 hr
Method: DU-145 cells were treated with AC620 at various concentrations (0, 0.1, 0.5, 1 μM) for 72 hr. After 72 hr treatment, cell lysates were collected and immunoblotting was performed. The membranes were probed with primary antibodies against VEGF Receptor I (VEGF R1) and VEGF Receptor II (VEGF R2) and actin (Santa Cruz Biotechnology, Santa Cruz, Calif.) followed by horseradish peroxidase (HRP)-conjugated secondary antibodies and visualized using the Enhanced Chemi-Luminescence detection system (ECL) and ECL films.

SMILES: CC1OC(OCC2OC(Oc3c(-c4ccc(O)c(O)c4)oc4cc(O)c(O)cc4c3=O)C(O)C(O)C2O)C(O)C(O)C1O (centres unmarked) [AC620]
- viability of primary human prostate endothelial cells [1]: remained viable
- G1 phase cell cycle arrest (DU-145 cells [2]; 0.1 μm): 0%
- G1 phase cell cycle arrest (DU-145 cells [2]; 0.5 μm): 4%
- G1 phase cell cycle arrest (DU-145 cells [2]; 1 μm): 18%
- G1 phase cell cycle arrest (DU-145 cells [2]; 5 μm): 32%
- apoptosis increased, LNCaP cells (LNCaP cells [3]; 0.1 μm): 46%
- apoptosis increased, LNCaP cells (LNCaP cells [3]; 0.5 μm): 81%
- apoptosis increased, LNCaP cells (LNCaP cells [3]; 1 μm): 154%
- apoptosis increased, LNCaP cells (LNCaP cells [3]; 5 μm): 177%
- expression of VEGF in tumors (VEGF): completely abolished
- p21 expression reduced in tumor samples (p21; Treatment 1): 0%
- p21 expression reduced in tumor samples (p21; Treatment 2): 70%
- p21 expression reduced in tumor samples (p21; Treatment 3): 60%
- p21 expression reduced in tumor samples (p21; Treatment 4): 90%
- cell proliferation decreased, HT-29 cells (HT-29 cells; 0.1 μm): 0%
- cell proliferation decreased, HT-29 cells (HT-29 cells; 0.5 μm): 5%
- cell proliferation decreased, HT-29 cells (HT-29 cells; 1 μm): 46%
- cell proliferation decreased, HT-29 cells (HT-29 cells; 4 μm): 62%
- reduction of CDK1 expression in tumor samples (CDK1; Treatment 1): approximately 80%
- reduction of CDK1 expression in tumor samples (CDK1; Treatment 2): > 95%
- reduction of CDK1 expression in tumor samples (CDK1; Treatment 3): ~90%
- reduction of CDK1 expression in tumor samples (CDK1; Treatment 4): approximately 80%
- viable DU-145 cells decreased (DU-145 cells [4]; 5 μm): 67%
- viable DU-145 cells decreased (DU-145 cells [4]; 100 μm): 93%
- viable DU-145 cells decreased (DU-145 cells [4]; 500 μm): 94%
- viable DU-145 cells decreased (DU-145 cells [4]; 1000 μm): 97%
- viable LNCaP cells decreased (LNCaP cells [5]; 5 μm): 42%
- viable LNCaP cells decreased (LNCaP cells [5]; 100 μm): 67%
- viable LNCaP cells decreased (LNCaP cells [5]; 500 μm): 92%
- viable LNCaP cells decreased (LNCaP cells [5]; 1000 μm): 96%
- reduction of CDK2 expression in tumor samples (CDK2; Treatment 1): approximately 80%
- reduction of CDK2 expression in tumor samples (CDK2; Treatments 2, 3 and 4): > 95%
- apoptosis increased, DU-145 cells (DU-145 cells [6]; 0.1 μm): 46%
- apoptosis increased, DU-145 cells (DU-145 cells [6]; 0.5 μm): 115%
- apoptosis increased, DU-145 cells (DU-145 cells [6]; 1 μm): 285%
- apoptosis increased, DU-145 cells (DU-145 cells [6]; 5 μm): 389%
- estimated decrease of VEGF RNA expression level in tumor samples (VEGF RNA): ~90%
- change in VEGF R1 expression [7]: no change
